Source: EP0832650A2 (ELI LILLY AND COMPANY, priority 1996, dated 1998)
Counter-ions that a name gives are not always drawn.

Tested on: neuronal protein extravasation
Test: Neuronal protein extravasation in dura after electrical stimulation of the trigeminal ganglion
Assay type: in vivo, Harlan Sprague-Dawley rats or guinea pigs
Conditions: 10 minutes before trigeminal ganglion stimulation, dose inhibiting extravasation by 50%, approximated from dose-response curve, species (rat or guinea pig) not given
Method: Harlan Sprague-Dawley rats (250-350 g) or guinea pigs from Charles River Laboratories (250-350 g) were anesthetized with sodium pentobarbital intraperitoneally (65 mg/kg or 45 mg/kg respectively) and placed in a stereotaxic frame (David Kopf Instruments) with the incisor bar set at -3.5 mm for rats or -4.0 mm for guinea pigs. Following a midline sagital scalp incision, two pairs of bilateral holes were drilled through the skull (6 mm posteriorly, 2.0 and 4.0 mm laterally in rats; 4 mm posteriorly and 3.2 and 5.2 mm laterally in guinea pigs, all coordinates referenced to bregma) . Pairs of stainless steel stimulating electrodes, insulated except at the tips, (Rhodes Medical Systems, Inc.) were lowered through the holes in both hemispheres to a depth of 9 mm (rats) or 10.5 mm (guinea pigs) from dura.
The femoral vein was exposed and a dose of the test compound was injected intravenously (1 mL/kg). Approximately 7 minutes later, a 50 mg/kg dose of Evans Blue, a fluorescent dye, was also injected intravenously. The Evans Blue complexed with proteins in the blood and functioned as a marker for protein extravasation. Exactly 10 minutes post-injection of the test compound, the left trigeminal ganglion was stimulated for 3 minutes at a current intensity of 1.0 mA (5 Hz, 4 msec duration) with a Model 273 potentiostat/ galvanostat (EG&G Princeton Applied Research).
Fifteen minutes following stimulation, the animals were killed by exsanguination with 40 mL of saline. The top of the skull was removed to facilitate the collection of the dural membranes. The membrane samples were removed from both hemispheres, rinsed with water, and spread flat on microscopic slides. Once dried, the tissues were coverslipped with a 70% glycerol/water solution.
A fluorescence microscope (Zeiss) equipped with a grating monochromator and a spectrophotometer was used to quantify the amount of Evans Blue dye in each sample. An excitation wavelength of approximately 535 nm was utilized and the emission intensity at 600 nm was determined. The microscope was equipped with a motorized stage and also interfaced with a personal computer. This facilitated the computer-controlled movement of the stage with fluorescence measurements at 25 points (500 µm steps) on each dural sample. The mean and standard deviation of the measurements was determined by the computer.
The extravasation induced by the electrical stimulation of the trigeminal ganglion was an ipsilateral effect (i.e. occurs only on the side of the dura in which the trigeminal ganglion was stimulated). This allows the other (unstimulated) half of the dura to be used as a control. The ratio of the amount of extravasation in the dura from the stimulated side compared to the unstimulated side dura was calculated. Saline controls yielded a ratio of approximately 2.0 in rats and 1.8 in guinea pigs. […]

SMILES | Inhibition of Protein Extravasation i.v. ID50 [mmol/kg]
O=C(O)C(=O)O.Oc1ccc2[nH]cc(C3CCNCC3)c2c1 [Compound III, 5-hydroxy-3-(4-piperidinyl)-1H-indole oxalate] | 8.9e-09
CN(C)C1CCc2[nH]c3ccc(O)cc3c2C1 (centres unmarked) [Compound V, 6-hydroxy-3-dimethylamino-1,2,3,4-tetrahydrocarbazole] | 8.7e-09
Cn1cc(CCN2CCC(c3c[nH]c4ccc(F)cc34)CC2)cn1 [Compound II, 5-fluoro-3-<1-<2-<1-methyl-1H-pyrazol-4-yl>ethyl>-4-piperidinyl>-1H-indole hydrochloride] | 8.6e-10
CCN(CC)C1CCc2cccc(Cl)c2C1.Cl (centres unmarked) [Compound IV, 8-chloro-2-diethylamino-1,2,3,4-tetrahydronaphthalene hydrochloride] | 1.2e-07
CNS(=O)(=O)Cc1ccc2[nH]cc(CCN(C)C)c2c1.O=C(O)CCC(=O)O [Compound I, 3-[2-(dimethylamino)ethyl]-N-methyl-1H-indole-5-methanesulfonamide butane-1,4-dioate (1:1)] | 2.6e-08
